# Assays:
# p38a (MAPK14) = biological target: T1, p38a (MAPK14) (Homo sapiens, UniProt Q16539); experiment: Single-cell p38a activity reporter assay (RPE1-p38 KTR); type: cell-based; conditions: 1 μM, confirmed at 10 μM; 48 hours; RPE1 cells
# T1 construct: tested for their influence on p38a activity using the RPE1-p38 kinase translocation reporter (KTR) line; endogenous in cells; host or cells: RPE1-p38KTR cells
# Experimental: Cell Painting profiles for two wild-type variants of p38a (MAPK14) were averaged to create a p38a Cell Painting profile. 20 compounds whose Cell Painting profile correlated positively or negatively to that of p38a overexpression were selected in addition to 14 “non-correlated compounds” defined as having an absolute value of correlation of less than 0.2 as negative/neutral controls. The compounds were tested for their influence on p38a activity using the RPE1-p38 kinase translocation reporter (KTR) line that was previously generated. This cell line has been tested and confirmed to be negative for mycoplasma contamination, but not necessarily authenticated. P38 activity is measured by phosphorylation of its substrate, MEF2C, which is preferentially phosphorylated by p38 α, while p380 and p386 contribute less. RPE1-p38KTR cells were cultured in DMEM/F12 medium supplemented with 10% Fetal Bovine Serum at 37C in a humidified atmosphere with 5% CO2. 1000 cells were plated in 96-well plates and treated with 1p M or 10 μM of each compound (n=4 per concentration per compound, no replicates) for 48 hours. Only the middle 60 wells were used to prevent potential confounds from the edge effect. Cells were then fixed in 4% paraformaldehyde for 10 min, followed by permeabilization in cold methanol at −20C for 5 min. Cells were stained with 0.4 μg/mL Alexa Fluor 647 carboxylic acid, succinimidyl ester for 2 hr at RT, followed by 1 μg/mL DAPI for 10 min at RT to facilitate the segmentation of individual cells. p38a activity in single cells was calculated using the ratio of the median intensity of the p38-KTR in a 5-pixel-wide cytoplasmic ring around the nucleus to the median intensity of the p38-KTR in the nucleus. p38a activity measurements were normalized to DMSO conditions within the same plate. The Student's t-test Kolomogorov-Smirnov (KS) test was used to assess the score and significance of the single cell distributions of p38a activity for each compound relative to control. […] When reporting hits from this assay, KS test and t-test p-values were adjusted to control the false discovery rate using the Benjamini-Hochberg method, using the p.adjust method=‘BH” in R.
# rat cortical neurons = experiment: TMRE staining (mitochondrial membrane potential) in rat cortical neurons; type: cell-based; conditions: 10 μM
# Experimental: High content mitochondrial motility screen: Mitochondrial motility was measured as described in Shlevkov, E. et al., Cell Rep. […] Briefly, we plated E18 rat cortical neurons in the middle 60 wells of 96 well plates (Greiner)—40,000 cells per well in 150 μl enriched Neurobasal media. Neurons were transfected with mito-DsRed at DIV7 using Lipofectamine2000 (Life Technologies). […] At DIV9, test compounds were added into wells to achieve a final concentration of 10 μM each (4 wells per compound), as well at 10 μM calcimycin for neg. control, and DMSO only for mock treatment. Following a 1-2 hour incubation, plates were imaged on a ArrayScan XTI (Thermo Fisher). Mitochondrial motility data was extrapolated from imaging data using a MATLAB and CellProfiler based computational pipeline. […] The experiment was repeated twice in different weeks. In the second week, TMRE was added to all wells after imaging was completed (20 min, then 2 washes) and imaged to measure mitochondrial membrane potential in order to determine mitochondrial and cell health.
# PPARG = PPARG reporter gene assay (FABP4-NanoLuc, RT112/84 bladder cancer cell line); type: cell-based; conditions: absence or presence of Rosiglitazone
# Experimental: These NanoLuc gene cloned RT112/84 cells were plated in 384-well plates at ˜10,000 cells/well. Cells were dosed with indicated compounds in the absence or presence of EC50 of PPARG agonist, rosiglitazone, using an HP D300 digital dispenser. The following day nuclei were counted for normalization (IncuCyte S3, Essen Bioscience) and the reporter activity was evaluated using the NanoGlo Luciferase Assay System (Promega). Normalized data is reported as NanoGlo arbitrary light units divided by cell number. PPARG agonist, rosiglitazone, and inhibitor, T0070907, were obtained from Tocris and included as controls.
# [1] = system: YAP1 overexpression in U2OS cells; experiment: Cell Painting morphological profile matching to YAP1/TAZ overexpression signature; type: cell-based, human; conditions: for Corr. to YAP1 cluster: Pearson correlation of Cell Painting signatures, U2OS cells
# Source text: (§1) Of these, analysis of the 220 constructs that were most closely representative of the annotated full-length transcripts was prioritized. […] Not all genes are likely to impact cellular morphology given the limitation of the experiment; using a single cell line at a single time point under a single set of conditions and stained with six fluorescent labels.
# FIG. 2 provides an example characterization of matching the morphological signature of a gene query to the signature(s) of compounds in a library. Connections which show both positive and negative large correlations are considered as matches.
# (§2) This standardization was done plate wise, based on the mean and standard deviation of the controls at profile level for the compound dataset. […] The signatures were then obtained by averaging the replicate profiles feature-wise. Pearson correlation was used on the aligned signatures of a gene and compound to score their connection.
# KP230 cells = experiment: Proliferation assay, KP230 cells; type: cell-based, mouse; conditions: 10 μM daily for 72 hours
# Source text: YAP1 cell culture and treatments: Eisinger lab: Murine KP230 cells, a Yap1-dependent cancer cell line, were derived from a tumor from the KP mouse model (Kras^G12/D; Trp53^f/fl), as described in Eisinger-Mathason, T. S. K. et al., Proc. Natl. Acad. Sci. U.S.A 112 (2015): E3402-11, which is hereby incorporated by reference in its entirety. STS-109 UPS cells were derived from a human UPS tumor and validated by Rebecca Gladdy, MD (Sinai Health System, Toronto, Ontario, Canada). TC32 cells were a gift from Patrick Grohar, MD, PhD (Children's Hospital of Philadelphia). HT-1080, HCT-116, and HEK293T cells were purchased from ATCC. KP230, HT-1080, and HEK-293T cells were grown in DMEM with 10% FBS, 1% L-glutamine, and 1% penicillin/streptomycin (P/S). STS-109 cells were cultured in DMEM with 20% FBS, 1% L-glutamine, and 1% P/S. TC32 cells were grown in RPMI with 10% FBS, 1% L-glutamine, and 1% P/S. HCT-116 cells were cultured in McCoy's 5A medium with 10% FBS and 1% P/S. All cells were confirmed to be negative for mycoplasma contamination and were maintained in an incubator at 37C with 5% CO2. For experimental purposes, cells were cultured for up to 20 passages before being discarded, and were grown to approximately 50% confluence to circumvent the effects of high cell density on Yap1 expression and activity. All cell lines in the Eisinger laboratory were treated with 10 μM of each inhibitor or an equivalent volume of DMSO every 24 hours for 3 days, except for STS-109 cells, which were treated daily for 8 days.
# NB4A treatment: Cells were treated with 10 μM of each inhibitor or an equivalent volume of DMSO every 24 hours for 3-8 days, and counted with a hemocytometer with trypan blue exclusion daily (KP230, HT-1080, TC32, HCT-116), or every 2 days (STS-109).
# [2] = system: TRAF2 overexpression in U2OS cells; experiment: Cell Painting morphological profile matching to TRAF2 overexpression; type: cell-based, human; conditions: for Corr. to TRAF2: Pearson correlation of Cell Painting signatures, U2OS cells
# Source text: as §1, §2
# U2OS cells = experiment: Cell count in U2OS Cell Painting images; type: cell-based, human; conditions: for Avg. Cell Count z-score: U2OS Cell Painting
# Source text: as §1, §2
# [3] = system: HEK293, HepG2, A549 cells; conditions: per PubChem; cited from earlier work
# [4] = system: H9 human pluripotent stem cells; experiment: qPCR of YAP1, CTGF and CYR61 in H9 hPSCs; type: cell-based; conditions: 24 hrs
# Experimental: H9 hPSCs (WiCell) were maintained on vitronectin (Thermo Fisher)-coated plates in Essential 8 (E8) medium. The cells were routinely passaged using 0.5 mM EDTA and treated with 5 μM Y-27632 dihydrochloride (Tocris) on the first day. For testing the effects of the small molecules, H9 hPSCs were seeded at 50K cells/cm^2 on vitronectin-coated plates in E8 medium supplemented with 5 μM Y-27632 dihydrochloride (day 0). On day 1, the medium was switched to E8 medium. On day 2, the medium was switched to E8 medium supplemented with the small molecules. Following overnight incubation, the cells were collected for subsequent analysis on day 3.
# The RNA was extracted using TRIzol (Life Technologies) and Direct-zol™ RNA MiniPrep kit (Zymo Research) as per manufacturer instructions. The RNA was reverse transcribed using iScript cDNA synthesis kit (Bio-Rad). The qPCR was performed on CFX Connect (Bio-Rad) using iTaq Universal SYBR Green Supermix (Bio-Rad). GAPDH was used as a reference gene for normalization. The relative gene expression levels were determined using the ddCt method.
# PAX8 = PAX8 (Homo sapiens, UniProt Q06710); conditions: per PubChem; cited from earlier work
# murine periosteal cells = experiment: qPCR of Yap1 and Cyr61 in murine periosteal cells; type: cell-based, mouse; conditions: 5 μM
# Experimental: Murine periosteal cells were isolated from a transgenic mouse model (CMV-Cre; R26R-rtTA^fl; tetO-YAP^S127A) in which YAP1 can be activated in a doxycycline inducible manner (Camargo 2011). This mouse model expresses a mutant form of YAP1 (YAP^S127A) that escapes degradation. Cells were cultured in a-MEM with 15% Fetal Bovine serum (S11550, R&D Systems), 1% GlutaMAX-I (Gibco, 35050-061) and 1% Penicillin/Streptomycin (Gibco, 15140-122).
# To induce YAP^S127A, […] doxycycline was added to the cell culture medium for 48 hours. This was used as a positive control to compare YAP1 mRNA expression. Cells were also treated with BRD-K34692511-001-01-9 at 5 μM. mRNA was isolated from cells (n=3/group/time point) at 1, 4 or 48 hours after treatment using Qiagen RNeasy Mini kit (Qiagen, 74106). cDNA was prepared as per the manufacturer's protocol using the High-Capacity Reverse Transcription kit (Thermofisher scientific, 4368814). qPCR analysis was performed using the QuantStudio 6 Pro Real-Time PCR System.
# T1 sequence (Q16539 whole entry): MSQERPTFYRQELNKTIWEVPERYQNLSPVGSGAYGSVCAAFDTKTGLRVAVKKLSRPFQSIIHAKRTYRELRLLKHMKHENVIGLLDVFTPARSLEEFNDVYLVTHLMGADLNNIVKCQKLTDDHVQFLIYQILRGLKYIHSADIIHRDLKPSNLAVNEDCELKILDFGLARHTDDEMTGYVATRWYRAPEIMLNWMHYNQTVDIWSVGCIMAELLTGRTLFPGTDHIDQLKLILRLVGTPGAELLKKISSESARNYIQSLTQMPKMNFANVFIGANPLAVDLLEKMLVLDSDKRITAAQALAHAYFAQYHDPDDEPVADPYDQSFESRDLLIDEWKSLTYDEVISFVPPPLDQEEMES
# PAX8, sequence (Q06710 whole entry, species assumed): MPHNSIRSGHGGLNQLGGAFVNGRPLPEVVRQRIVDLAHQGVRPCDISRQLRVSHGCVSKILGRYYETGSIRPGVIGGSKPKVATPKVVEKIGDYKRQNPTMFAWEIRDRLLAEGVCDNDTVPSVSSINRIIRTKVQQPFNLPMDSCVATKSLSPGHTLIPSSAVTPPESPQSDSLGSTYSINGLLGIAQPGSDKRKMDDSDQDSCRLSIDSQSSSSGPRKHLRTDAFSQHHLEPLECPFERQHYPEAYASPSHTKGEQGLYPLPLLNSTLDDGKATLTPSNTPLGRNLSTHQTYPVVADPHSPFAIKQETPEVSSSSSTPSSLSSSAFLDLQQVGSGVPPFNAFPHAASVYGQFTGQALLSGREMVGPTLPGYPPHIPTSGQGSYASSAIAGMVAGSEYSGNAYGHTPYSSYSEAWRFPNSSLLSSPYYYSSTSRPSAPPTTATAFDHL
smiles,measurement,setting,value
"Nc1nc(Nc2ccccc2)nc2c1ncn2C1OC(CO)C(O)C1O (stereo not shown) [BRD-A64933752, 2-(6-amino-2-anilinopurin-9-yl)-5-(hydroxymethyl)oxolane-3,4-diol]",p38a activity,p38a (MAPK14),potential inhibitors
"CC(C)(C)n1nc(-c2cccc3ccccc23)c2c(N)ncnc21 [BRD-K29542628, 1-(tert-Butyl)-3-(naphthalen-1-yl)-1H-pyrazolo[3,4-d]pyrimidin-4-amine]",TMRE staining (mitochondrial membrane potential),rat cortical neurons,normal levels of TMRE staining
same,PPARG reporter activity,PPARG,active in the PPARG reporter assay
"CO[C@@H]1CN(C)C(=O)c2cc(NC(=O)Nc3ccc(C(F)(F)F)cc3)ccc2OC[C@@H](C)NC[C@@H]1C [BRD-K34692511, 1-[(4R,7S,8S)-8-methoxy-4,7,10-trimethyl-11-oxo-2-oxa-5,10-diazabicyclo[10.4.0]hexadeca-1(12),13,15-trien-14-yl]-3-[4-(trifluoromethyl)phenyl]urea]",Cell Painting profile correlation with YAP1 overexpression,[1],−0.45
same,Corr. to YAP1 cluster,[1],−0.4398
same,proliferation,KP230 cells,inhibited KP230 cell proliferation
same,Cell Painting profile correlation with TRAF2 overexpression,[2],0.29
same,Corr. to TRAF2,[2],0.2869
same,proliferation in the U2OS Cell Painting images,U2OS cells,had none of these impacts
same,Avg. Cell Count z-score,U2OS cells,0.478
same,"AC50, inhibition of cell proliferation",[3],had none of these impacts
same,"mRNA levels of hippo pathway members (YAP1, CTGF, CYR61)",[4],did not dramatically impact
same,PAX8 inhibition,PAX8,had none of these impacts
same,mRNA levels of Yap1 and Cyr61,murine periosteal cells; 1 and 4 hours,not at 1 and 4 hours
same,mRNA levels of Yap1 and Cyr61,murine periosteal cells; 48 hours,substantially upregulated
"CCCCNc1cc(C(=O)O)cc(S(N)(=O)=O)c1Oc1ccccc1 [BRD-K38197229, 3-(butylamino)-4-phenoxy-5-sulfamoylbenzoic acid]",p38a activity,p38a (MAPK14),potential inhibitors
"COC1(C[S@@+]([O-])c2ccccc2)CCN(CCc2c[nH]c3ccc(F)cc23)CC1 [BRD-K52394958, 5-Fluoro-3-[2-[4-methoxy-4-[[(R)-phenylsulfinyl]methyl]piperidin-1-yl]ethyl]-1H-indole]",p38a activity,p38a (MAPK14),identified via an alternative statistical test
"CCc1cc(-c2n[nH]c(C)c2-c2ccc3c(c2)OCCO3)c(O)cc1O [BRD-K65503129, 4-[4-(2,3-dihydro-1,4-benzodioxin-6-yl)-5-methyl-1H-pyrazol-3-yl]-6-ethylbenzene-1,3-diol]",PPARG reporter activity,PPARG; listed as B09,active in the PPARG reporter assay
same,PPARG reporter activity,PPARG; listed as CCT018159,inhibited reporter activity
"CCCCCCCCCCCCCC(=O)O[C@@H]1[C@@H](C)[C@@]2(O)[C@@H](C=C(CO)C[C@]3(O)C(=O)C(C)=C[C@@H]23)[C@@H]2C(C)(C)[C@]12OC(C)=O [BRD-K68552125, 12-O-Tetradecanoylphorbol-13-acetate]",TMRE staining (mitochondrial membrane potential),rat cortical neurons,normal levels of TMRE staining
same,PPARG reporter activity,PPARG; listed as A06,active in the PPARG reporter assay
same,PPARG reporter activity,PPARG; listed as Phorbol 12-myristate 13-acetate,inhibited reporter activity
"O=c1[nH]ccc2c(S(=O)(=O)N3CCCNCC3)cccc12 [BRD-K77793136, 5-(1,4-diazepan-1-ylsulfonyl)-2H-isoquinolin-1-one]",Corr. to YAP1 cluster,[1],0.4458
same,Corr. to TRAF2,[2],−0.4667
same,Avg. Cell Count z-score,U2OS cells,−1.055
"CCc1nc(N)nc(N)c1-c1ccc(Cl)cc1 [BRD-K88429204, 5-(4-chlorophenyl)-6-ethylpyrimidine-2,4-diamine]",Corr. to YAP1 cluster,[1],0.4503
same,Corr. to TRAF2,[2],−0.3496
same,Avg. Cell Count z-score,U2OS cells,−0.2165
"CC(C)(C)n1nc(-c2ccc(Cl)cc2)c2c(N)ncnc21 [BRD-K95785537, 1-(tert-butyl)-3-(4-chlorophenyl)-1H-pyrazolo[3,4-d]pyrimidin-4-amine]",TMRE staining (mitochondrial membrane potential),rat cortical neurons,normal levels of TMRE staining
"C[C@@H]1CN([C@H](C)CO)C(=O)CCCn2cc(nn2)CO[C@@H]1CN(C)S(=O)(=O)c1ccc(Oc2ccccc2)cc1 [BRD-K96698997, N-[[(8R,9S)-6-[(2R)-1-hydroxypropan-2-yl]-8-methyl-5-oxo-10-oxa-1,6,13,14-tetrazabicyclo[10.2.1]pentadeca-12(15),13-dien-9-yl]methyl]-N-methyl-4-phenoxybenzenesulfonamide]",Corr. to YAP1 cluster,[1],−0.4518
same,Corr. to TRAF2,[2],0.4834
same,Avg. Cell Count z-score,U2OS cells,−1.099
"Cc1ccc(-c2nn(C(C)(C)C)c3ncnc(N)c23)cc1 [PP1, reference compound]",PPARG reporter activity,PPARG,reporter activation
"Oc1ccc(-c2nc(-c3ccc(F)cc3)c(-c3ccncc3)[nH]2)cc1 [SB202190, 4-(4-(4-fluorophenyl)-5-(pyridin-4-yl)-1H-imidazol-2-yl)phenol, reference compound]",p38a activity,p38a (MAPK14),suppressed p38a activity
